# Test results: patent US8658000B2, “Preparation method of apigenin and dehydrosilybin mixture using radiation” (Korea Atomic Energy Research Institute, priority 2011, dated 2014)
# How the values were obtained:
# [1] = test system: prostate carcinoma cell line (DU145); assay: EZ-Cytox cell viability assay, prostate carcinoma cell line (DU145); format: cell-based; conditions: Homo sapiens, DU-145; DU145, 50 μg/mL, 24 h, non-treated = 100
# Protocol: (§1) To investigate the cancer cell inhibitory effect of the compounds of formulae 1 and 2 obtained by the preparation method according to the present invention, experiment was conducted. EZ-Cytox cell viability assay kit (Daeil Lab, Korea) was used to measure cancer cell growth inhibitory activity, and prostate carcinoma cell line (DU145), cervical carcinoma cell line (Hela), colon carcinoma cell line (SW480), and lung carcinoma cell line (H460) were used for cancer cells. All the cancer cells were incubated in 96-well plate at concentration of 5×10^4 cells/mL. After 24 h, dehydrosilybin compound of formula 1 and apigenin compound of formula 2 according to the present invention, and starting substance (i.e., silybin) as a control were treated at concentration of 50 μg/mL. After culturing at 37° C., 5% carbon dioxide environment, 24 h, 10 μL of kit solution was treated in each well. After 3 h of additional culturing, the optical absorbance was measured at 480 nm. The result is listed in Tables 3 to 6 and illustrated in FIGS. 2 to 7.
# [2] = test system: cervical carcinoma cell line (Hela); assay: EZ-Cytox cell viability assay, cervical carcinoma cell line (Hela); format: cell-based; conditions: Homo sapiens, 50 μg/mL, 24 h, non-treated = 100
# Protocol: as §1
# [3] = test system: colon carcinoma cell line (SW480); assay: EZ-Cytox cell viability assay, colon carcinoma cell line (SW480); format: cell-based; conditions: Homo sapiens; SW480, 50 μg/mL, 24 h, non-treated = 100
# Protocol: as §1
# [4] = test system: lung carcinoma cell line (H460); assay: EZ-Cytox cell viability assay, lung carcinoma cell line (H460); format: cell-based; conditions: Homo sapiens, NCI-H460; H460, 50 μg/mL, 24 h, non-treated = 100
# Protocol: as §1
# [5] = test system: colon carcinoma cell line (SW620); assay: EZ-Cytox cell viability assay, colon carcinoma cell line (SW620); format: cell-based; conditions: Homo sapiens, SW-620; SW620, 50 μg/mL, 24 h, non-treated = 100
# [6] = test system: lung carcinoma cell line (A549); assay: EZ-Cytox cell viability assay, lung carcinoma cell line (A549); format: cell-based; conditions: Homo sapiens; A549, 50 μg/mL, 24 h, non-treated = 100
# [7] = test system: various cancers; conditions: background statement; cited from earlier work
Structure (SMILES),viability at 50 µg/mL [1] [%],viability at 50 µg/mL [2] [%],viability at 50 µg/mL [3] [%],viability at 50 µg/mL [4] [%],viability at 50 µg/mL [5] [%],viability at 50 µg/mL [6] [%],concentration at which apigenin can effectively act (anticancer activity) [7] [µM]
COc1cc(C2Oc3cc(-c4oc5cc(O)cc(O)c5c(=O)c4O)ccc3OC2CO)ccc1O (stereo not shown) [Compound of formula 1],40.4,21.1,41.7,66.3,27.8,58.9,–
"O=c1cc(-c2ccc(O)cc2)oc2cc(O)cc(O)c12 [Compound of formula 2, 5,7-dihydroxy-2-(4-hydroxyphenyl)-4H-chroman-4-one]",51.6,38.7,49.2,97.4,39.4,72.1,< 50
